Data from US12527779B2, “Prostaglandin E2 (PGE2) EP4 receptor antagonists” (Domain Therapeutics, priority 2019, dated 2026).
Where a name gives a salt, the structure may show the parent alone.

Molecular target: T1, human EP4 (hEP4) receptor (Homo sapiens, UniProt P35408)
T1 construct: expressed in transfected cells; host or cells: HEK-293 T cells, transient co-transfection with polyethylenimine
Assay: In vitro human EP4 functional antagonist activity using BRET biosensors (cAMP EPAC biosensor, TCS2510 stimulation)
Format: cell-based
Conditions: antagonist activity vs EC60 TCS2510, hEP4 in HEK-293 T cells
Description: Examples of the present invention were tested successively for their agonist and antagonist activities on human EP4 (hEP4) receptor transiently over-expressed in HEK-293 T cells. […] The assay used to measure compound activity is based on the BRET technology. The unimolecular cAMP biosensor used to detect intracellular cAMP levels following GPCR stimulation consists of the EPAC protein fused to N- and C-terminal of Luciferase and GFP respectively.
Cell Culture and Transfection: HEK-293 T cells are maintained in Dulbecco's Modified Eagle's Medium supplemented with 10% Foetal Calf Serum, 1% Penicillin/Streptomycin at 37° C./5% CO2. Cells are co-transfected using polyethylenimine (25 kDa linear) with two DNA plasmids encoding hEP4, EPAC fused to luciferase (BRET donor) and to GFP (BRET acceptor). After transfection, cells are cultured (40,000 cells per well) for 48 h at 37° C./5% CO2.
BRET assay: Receptor activity is detected by changes in BRET signal. On the day of the assay, cells are rinsed and incubated in assay buffer (1.8 mM CaCl2, 1 mM MgCl2, 2.7 mM KCl, 137 mM NaCl, 0.4 mM NaH2PO4, 5.5 mM D-Glucose, 11.9 mM NaHCO3, 25 mM Hepes). Then, plates are equilibrated 1 h at 22° C. before adding compounds. Compounds and luciferase substrate are added to the cells using an automated device (Freedom Evo®, Tecan) and BRET readings are collected on EnVision (PerkinElmer) with specific filters (410 nm BW 80 nm, 515 nm BW 30 nm). Agonist and antagonist activities of compounds are consecutively evaluated on the same cell plate. Agonist activity is first measured after 5 min incubation with compound alone on the cells. Then, cells are stimulated by an EC60 TCS2510 concentration and luminescence is recorded for additional 10 min. EC60 TCS2510 concentration is the concentration giving 60% of the maximal TCS2510 response. Agonist or antagonist activities are evaluated in comparison to basal signals evoked by assay buffer or EC60 TCS2510 alone, respectively.
For IC50 determination, a dose-response test is performed using 10 concentrations (ranging over 4.5 logs) of each compound. Dose-response curves are fitted using the sigmoidal dose-response (variable slope) analysis in GraphPad Prism software (GraphPad Software) and IC50 of antagonist activity is calculated. Dose-response experiments are performed in duplicate, in two independent experiments. IC50 values are categorized as following: A: IC50<0.1 μM; B: IC50<1 μM.

T1 sequence (P35408 whole entry): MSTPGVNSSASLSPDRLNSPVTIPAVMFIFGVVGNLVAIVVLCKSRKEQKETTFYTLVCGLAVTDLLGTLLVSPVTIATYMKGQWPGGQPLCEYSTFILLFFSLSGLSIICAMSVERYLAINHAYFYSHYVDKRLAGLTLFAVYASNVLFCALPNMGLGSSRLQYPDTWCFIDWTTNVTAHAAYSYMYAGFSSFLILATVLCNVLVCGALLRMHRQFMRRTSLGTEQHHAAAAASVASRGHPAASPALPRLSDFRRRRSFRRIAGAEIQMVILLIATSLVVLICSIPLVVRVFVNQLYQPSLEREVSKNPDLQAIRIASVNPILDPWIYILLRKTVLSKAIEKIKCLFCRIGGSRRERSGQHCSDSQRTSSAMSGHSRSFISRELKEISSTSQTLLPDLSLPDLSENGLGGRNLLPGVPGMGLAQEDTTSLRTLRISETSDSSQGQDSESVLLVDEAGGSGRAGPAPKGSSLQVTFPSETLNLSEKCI

Row | IC50 [µM] | SMILES
1 | < 1 | C[C@H](NC(=O)C1(N2CCC[C@H](Oc3cccc(Cl)c3)C2)CCOCC1)c1ccc(C(=O)O)cc1 [Example 134, 4-[(1S)-1-[[4-[(3S)-3-(3-Chlorophenoxy)-1-piperidyl]tetrahydropyran-4-carbonyl]amino]ethyl]benzoic acid, hydrochloride]
2 | < 0.1 | C[C@H](NC(=O)C1(N(C)CCOc2cccc(Cl)c2)CCOC1)c1ccc(C(=O)O)cc1 (stereo partly drawn) [Example 75, 4-[(1S)-1-[[3-[2-(3-Chlorophenoxy)ethyl-methyl-amino]tetrahydrofuran-3-carbonyl]amino]ethyl]benzoic acid, hydrochloride]
3 | < 0.1 | C[C@H](NC(=O)C1(N2CC[C@@H](Oc3cccc(Cl)c3)C2)CC1)c1ccc(C(=O)O)cc1 [Example 160, 4-[(1S)-1-[[1-[(3R)-3-(3-Chlorophenoxy)pyrrolidin-1-yl]cyclopropane-1-carbonyl]amino]ethyl]benzoic acid, hydrochloride]
4 | < 0.1 | Cc1cccc(O[C@@H]2CCN(C3(C(=O)NC4(c5ccc(C(=O)O)cc5)CC4)CCOCC3)C2)c1 [Example 151, 4-[1-[[4-[(3R)-3-(3-Methylphenoxy)pyrrolidin-1-yl]tetrahydropyran-4-carbonyl]amino]cyclopropyl]benzoic acid, hydrochloride]
5 | < 0.1 | CC(C)(C(=O)NC[C@H]1CC[C@H](C(=O)O)CC1)N1CC[C@@H](Oc2cccc(C(F)(F)F)c2)C1 [Example 201, (1R,4R)-4-((2-Methyl-2-((R)-3-(3-(trifluoromethyl)phenoxy)pyrrolidin-1-yl)propanamido)methyl)cyclohexane-1-carboxylic acid, hydrochloride]
6 | < 1 | C[C@H](NC(=O)C1(c2ccc(OCC3CCCCC3)cn2)CCCC1)c1ccc(C(=O)O)cc1 [Example 127, 4-[(1S)-1-[[1-[5-(Cyclohexylmethoxy)-2-pyridyl]cyclopentanecarbonyl]amino]ethyl]benzoic acid]
7 | < 1 | C[C@H](NC(=O)C1(NCCOc2ccccc2)CC2(CCC2)C1)c1ccc(C(=O)O)cc1 [Example 68, 4-[(1S)-1-[[2-(2-Phenoxyethylamino)spiro[3.3]heptane-2-carbonyl]amino]ethyl]benzoic acid, hydrochloride]
8 | < 1 | Cc1ccc([C@H](C)NC(=O)C2(N3CC[C@@H](Oc4cccc(C(F)(F)F)c4)C3)CCOCC2)cc1 [Example 193, N—((S)-1-(4-Methylphenyl)ethyl)-4-((R)-3-(3-(trifluoromethyl)phenoxy)pyrrolidin-1-yl)tetrahydro-2H-pyran-4-carboxamide, hydrochloride]
9 | < 1 | C[C@H](NC(=O)C1(N(C)CCOc2ccccc2)CCOCC1)c1ccc(C(N)=O)cc1 [Example 3, N-[(1S)-1-(4-Carbamoylphenyl)ethyl]-4-[methyl(2-phenoxyethyl)amino]tetrahydropyran-4-carboxamide]
10 | < 0.1 | C[C@H](NC(=O)C1(N2CC[C@@H](Oc3ccccc3)C2)CCOCC1)c1ccc(C(=O)O)cc1 [Example 152, 4-[(1S)-1-[[4-((3R)-3-Phenoxypyrrolidin-1-yl)tetrahydropyran-4-carbonyl]amino]ethyl]benzoic acid, hydrochloride]
11 | < 0.1 | C[C@H](NC(=O)C1(c2ccc(OCCC3CCCCC3)cc2)CCCC1)c1ccc(C(=O)O)cc1 [Example 110, 4-[(1S)-1-[[1-[4-(2-Cyclohexylethoxy)phenyl]cyclopentanecarbonyl]amino]ethyl]benzoic acid]
12 | < 0.1 | Cc1cccc(OCCNC2(C(=O)N[C@@H](C)c3ccc(C(=O)O)cc3)CCOCC2)c1 [Example 14, 4-[(1S)-1-[[4-[2-(3-Methylphenoxy)ethylamino]tetrahydropyran-4-carbonyl]amino]ethyl]benzoic acid, hydrochloride]
13 | < 0.1 | C[C@H](NC(=O)C1(NCCOc2ccccc2)CCOCC1)c1ccc(C(=O)O)cc1 [Example 1, 4-[(1S)-1-[[4-(2-Phenoxyethylamino)tetrahydropyran-4-carbonyl]amino]ethyl]benzoic acid, hydrochloride]
14 | < 1 | C[C@H](NC(=O)C1(c2ccc(OCCC3CCCCC3)nc2)CCOCC1)c1ccc(C(=O)O)cc1 [Example 122, 4-[(1S)-1-[[4-[6-(2-Cyclohexylethoxy)-3-pyridyl]tetrahydropyran-4-carbonyl]amino]ethyl]benzoic acid]
15 | < 0.1 | C[C@H](NC(=O)C1(N2CC[C@@H](Oc3cccc(C(F)(F)F)c3)C2)CCOCC1)c1ccc(C(N)=O)cc1 [Example 168, 4-[(1S)-1-[[4-[(3R)-3-[3-(Trifluoromethyl)phenoxy]pyrrolidin-1-yl]tetrahydropyran-4-carbonyl]amino]ethyl]benzamide, hydrochloride]
16 | < 0.1 | C[C@H](NC(=O)C1(c2ccc(OCC3CCCCC3)nc2)CCCC1)c1ccc(C(=O)O)cc1 [Example 129, 4-[(1S)-1-[[1-[6-(Cyclohexylmethoxy)-3-pyridyl]cyclopentanecarbonyl]amino]ethyl]benzoic acid]
17 | < 1 | COc1ccccc1OCCN(C)C1(C(=O)NC2(c3ccc(C(=O)O)cc3)CC2)CCOCC1 [Example 39, 4-[1-[[4-[2-(2-Methoxyphenoxy)ethyl-methyl-amino]tetrahydropyran-4-carbonyl]amino]cyclopropyl]benzoic acid, hydrochloride]
18 | < 0.1 | CN(CCOc1ccccc1)C1(C(=O)NC2(c3ccc(C(=O)O)cc3F)CC2)CCOCC1 [Example 50, 3-Fluoro-4-[1-[[4-[methyl(2-phenoxyethyl)amino]tetrahydropyran-4-carbonyl]amino]cyclopropyl]benzoic acid, hydrochloride]
19 | < 1 | COc1cccc([C@H](C)NC(=O)C2(N3CC[C@@H](Oc4cccc(C(F)(F)F)c4)C3)CCOCC2)c1 [Example 196, N—((S)-1-(3-Methoxyphenyl)ethyl)-4-((R)-3-(3-(trifluoromethyl)phenoxy)pyrrolidin-1-yl)tetrahydro-2H-pyran-4-carboxamide, hydrochloride]
20 | < 1 | C[C@H](NC(=O)C1(NCC2CCCCC2)CCOCC1)c1ccc(C(=O)O)cc1 [Example 21, 4-[(1S)-1-[[4-(Cyclohexylmethylamino)tetrahydropyran-4-carbonyl]amino]ethyl]benzoic acid, hydrochloride]
21 | < 1 | C[C@H](NC(=O)C1(c2ccc(OCC3CCCCC3)cn2)CCOCC1)c1ccc(C(=O)O)cc1 [Example 119, 4-[(1S)-1-[[4-[5-(Cyclohexylmethoxy)-2-pyridyl]tetrahydropyran-4-carbonyl]amino]ethyl]benzoic acid]
22 | < 0.1 | C[C@H](NC(=O)C1(NCCOc2ccccc2)CCSCC1)c1ccc(C(=O)O)cc1 [Example 66, 4-[(1S)-1-[[4-(2-Phenoxyethylamino)tetrahydrothiopyran-4-carbonyl]amino]ethyl]benzoic acid]
23 | < 1 | C[C@H](NC(=O)C1(c2cccc(OCC3CCCCC3)n2)CCCC1)c1ccc(C(=O)O)cc1 [Example 123, 4-[(1S)-1-[[1-[6-(Cyclohexylmethoxy)-2-pyridyl]cyclopentanecarbonyl]amino]ethyl]benzoic acid]
24 | < 0.1 | Cc1ccccc1OCCN(C)C1(C(=O)NC2(c3ccc(C(=O)O)cc3)CC2)CCOCC1 [Example 36, 4-[1-[[4-[2-(2-Methylphenoxy)ethyl-methyl-amino]tetrahydropyran-4-carbonyl]amino]cyclopropyl]benzoic acid, hydrochloride]
25 | < 1 | C[C@H](NC(=O)C1(N(C)CCOc2ccccc2)CCCOC1)c1ccc(C(=O)O)cc1 (stereo partly drawn) [Example 73, 4-[(1S)-1-[[3-[Methyl(2-phenoxyethyl)amino]tetrahydropyran-3-carbonyl]amino]ethyl]benzoic acid, hydrochloride]
26 | < 0.1 | CN(CCOc1cccc(Cl)c1)C1(C(=O)NC2(c3ccc(C(=O)O)cc3)CC2)CCOCC1 [Example 29, 4-[1-[[4-[2-(3-Chlorophenoxy)ethyl-methyl-amino]tetrahydropyran-4-carbonyl]amino]cyclopropyl]benzoic acid, hydrochloride]
27 | < 1 | C[C@H](NC(=O)C1(c2ccc(OCc3cccnc3)cc2)CCOCC1)c1ccc(C(=O)O)cc1 [Example 96, 4-[(1S)-1-[[4-[4-(3-Pyridylmethoxy)phenyl]tetrahydropyran-4-carbonyl]amino]ethyl]benzoic acid]
